ChEMBL document CHEMBL1201862, “PubChem BioAssay data set” (2004)
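Following 48 hours of exposure in 96-well plates, responses at five concentrations were used to interpolate endpoints linearly. GI50 is the concentration that inhibits growth by half.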 The source made the active and inactive calls. Cut-off read from the data, not from the text of the source: active = GI50 up to about 1.1 µM and inactive = higher.

Tests used:
Assay in all cases: NCI-60 cell line screen, 48 h
[1] = tested on: HCC 2998
[2] = tested on: T47D
[3] = tested on: UACC-257
[4] = tested on: M14
[5] = tested on: SF-295
[6] = tested on: Hs-578T
[7] = tested on: NCI-H23
[8] = tested on: SK-MEL-2
[9] = tested on: NCI/ADR-RES
[10] = tested on: HCT-116
[11] = tested on: LOX IMVI
[12] = tested on: A549
[13] = tested on: CCRF-CEM
[14] = tested on: Malme-3M
[15] = tested on: OVCAR-3
[16] = tested on: NCI-H460
[17] = tested on: MDA-MB-231
[18] = tested on: PC-3
[19] = tested on: RPMI-8226
[20] = tested on: IGROV-1

Measured: GI50

O=C(c1ccco1)N(C(=S)OC12CC3CC(CC(C3)C1)C2)c1ccccc1
inactive: [1] 25.1 µM | [2] 47.2 µM | [3] 30.9 µM | [4] 20.9 µM | [5] 27.7 µM | [6] 32.6 µM | [7] 27.8 µM | [8] 21.2 µM | [9] 28.6 µM | [10] 19.9 µM | [11] 26.7 µM | [12] 32.2 µM | [13] 16.9 µM | [14] 26.8 µM | [15] 28.1 µM | [16] 30.8 µM | [17] 31.8 µM | [18] 20.5 µM

O=C1c2ccccc2-c2c1c(-c1ccc(O)cc1O)nc1ccc3ccccc3c21
inactive: [1] > 100 µM | [2] > 100 µM | [3] > 100 µM | [4] > 100 µM | [5] > 100 µM | [6] 21.1 µM | [7] > 100 µM | [8] > 100 µM | [9] > 100 µM | [10] > 100 µM | [12] > 100 µM | [13] > 100 µM | [14] > 100 µM | [16] > 100 µM | [17] 27.8 µM | [19] > 100 µM | [18] > 100 µM

COc1ccc(N2C(=O)C3c4[nH]c5ccc(C)cc5c4C4CCC(C(C)(C)C)CC4C3C2=O)cc1 (stereo unspecified)
inactive: [1] 41 µM | [2] 35.2 µM | [3] 23.8 µM | [4] 10.7 µM | [5] 5.48 µM | [6] 3.64 µM | [7] 22.3 µM | [9] 13.3 µM | [10] 7.66 µM | [12] 6.9 µM | [13] 4.84 µM | [15] 10 µM | [16] 6.22 µM | [20] 38.9 µM | [17] 35.9 µM | [19] 11.2 µM | [18] 24.1 µM

COc1c(OC)c(OC)c2c(=O)c(OC)c(-c3ccc4c(c3)OCO4)oc2c1OC
inactive: [1] > 100 µM | [2] 41.9 µM | [3] > 100 µM | [4] > 100 µM | [5] > 100 µM | [6] > 100 µM | [7] > 100 µM | [8] > 100 µM | [9] 86.9 µM | [10] 86.7 µM | [11] > 100 µM | [12] 53.2 µM | [13] 23.8 µM | [14] > 100 µM | [15] > 100 µM | [16] > 100 µM | [20] > 100 µM | [17] > 100 µM | [18] 69.2 µM

CCOC(=O)c1nc2ccc(C(F)(F)F)cc2nc1Nc1ccc(OC)c(OC)c1
inactive: [1] > 100 µM | [2] > 100 µM | [3] > 100 µM | [4] > 100 µM | [5] > 100 µM | [6] > 100 µM | [7] > 100 µM | [9] > 100 µM | [10] 94.4 µM | [11] > 100 µM | [12] > 100 µM | [13] > 100 µM | [14] > 100 µM | [15] > 100 µM | [16] > 100 µM | [20] > 100 µM | [17] 48.9 µM | [19] > 100 µM | [18] > 100 µM

CCc1nc(N)c2nc(-c3cccs3)oc2n1
inactive: [1] > 100 µM | [2] 79.8 µM | [3] > 100 µM | [4] > 100 µM | [5] > 100 µM | [6] 45.3 µM | [7] > 100 µM | [8] > 100 µM | [9] > 100 µM | [10] > 100 µM | [11] 87.7 µM | [12] > 100 µM | [13] 77.1 µM | [15] > 100 µM | [16] 24.3 µM | [20] 69.7 µM | [17] > 100 µM | [19] 84.1 µM | [18] > 100 µM

CN(C)CCNC(=O)c1cccc(CO)c1[N+](=O)[O-]
inactive: [1] > 100 µM | [2] > 100 µM | [3] > 100 µM | [4] > 100 µM | [5] > 100 µM | [6] > 100 µM | [7] > 100 µM | [8] > 100 µM | [9] > 100 µM | [10] > 100 µM | [12] > 100 µM | [13] > 100 µM | [14] > 100 µM | [15] > 100 µM | [16] > 100 µM | [20] > 100 µM | [17] > 100 µM | [18] > 100 µM

Cc1ccc(/N=N/N(C)C(C)C(O)Cc2ccccc2)cc1 (stereo unspecified)
inactive: [1] 53.3 µM | [2] 33.7 µM | [3] 84.9 µM | [4] 95.7 µM | [5] 38.3 µM | [6] 41.9 µM | [7] 50.9 µM | [8] 37.8 µM | [9] 40.4 µM | [10] 49.3 µM | [12] 60.5 µM | [13] 32.7 µM | [14] > 100 µM | [15] 84.3 µM | [16] 36.5 µM | [20] 29.2 µM | [17] 52.7 µM | [19] 12.4 µM | [18] 20.3 µM
